# Experimental data published in patent US10206907B2, “Compounds useful for the treatment of degenerative and inflammatory diseases” (GALAPAGOS NV, priority 2008, dated 2019).
# Like-named read-outs stand apart in the source and are kept apart here.
# Tests used:
# [1] = test system: JAK-STAT signalling in HeLa cells; experiment: JAK-STAT signalling assay (OSM-triggered pSTAT1(2)-luciferase reporter in HeLa cells); type: cell-based; conditions: Homo sapiens; HeLa cells, OSM-triggered pSTAT1(2)-luciferase reporter; read-out: STAT signalling EC50
# In short: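 HeLa cells transiently transfected with pSTAT1(2)-luciferase reporter plus LacZ internal control, incubated overnight at 37 °C, 10% CO2, then OSM-stimulated with compound. Luciferase read by Steadylite luminescence and normalised to β-galactosidase (ONPG); percent inhibition from controls, EC50 from dose-response.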
# [2] = biological target: Recombinant human TYK2 catalytic domain (Homo sapiens (Human), UniProt P29597); experiment: TYK2 inhibition assay; type: biochemical; conditions: semi-quantitative score
# In short: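 Recombinant human TYK2 catalytic domain; radiometric kinase reaction run 90 min at 30° C, stopped with phosphoric acid, washed and counted by scintillation.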
# [3] = test system: Collagen Induced Arthritis (CIA); experiment: Rat CIA model; type: in vivo; conditions: therapeutic dosing day 16 to day 30, p.o., statistical significance in several of the readouts
# Procedure: Completed Freund's adjuvant (CFA) and incomplete Freund's adjuvant (IFA) were purchased from Difco. Bovine collagen type II (CII), lipopolysaccharide (LPS), and Enbrel were obtained from Chondrex (Isle d'Abeau, France); Sigma (P4252, L'Isle d'Abeau, France), Whyett (25 mg injectable syringe, France) Acros Organics (Palo Alto, Calif.), respectively. All other reagents used were of reagent grade and all solvents were of analytical grade.
# Dark Agouti rats (male, 7-8 weeks old) were obtained from Harlan Laboratories (Maison-Alfort, France). Rats were kept on a 12 hours light/dark cycle (0700-1900). The temperature was maintained at 22° C., and food and water were provided ad libitum.
# One day before the experiment, CII solution (2 mg/mL) was prepared with 0.05 M acetic acid and stored at 4° C. Just before the immunization, equal volumes of adjuvant (IFA) and CII were mixed by a homogenizer in a pre-cooled glass bottle in an ice water bath. Extra adjuvant and prolonged homogenization might be required if an emulsion is not formed. 0.2 mL of the emulsion was injected intradermally at the base of the tail of each rat on day 1, a second booster intradermal injection (CII solution at 2 mg/mL in CFA 0.1 mL saline) was performed on day 9. This immunization method was modified from published methods (Sims N A et al., (2004) Targeting osteoclasts with zoledronic acid prevents bone destruction in collagen-induced arthritis, Arthritis Rheum. 50 2338-2346; Jou et al., 2005).
# The therapeutic effects of the test compounds were tested in the rat CIA model. Rats were randomly divided into equal groups and each group contained 10 rats. All rats were immunized on day 1 and boosted on day 9. Therapeutic dosing lasted from day 16 to day 30. The negative control group was treated with vehicle (MC 0.5%) and the positive control group with Enbrel (10 mg/kg, 3× week, s.c.). A compound of interest was typically tested at 3 doses, e.g. 3, 10, 30 mg/kg, p.o.
# Arthritis was scored according the method of Khachigian 2006, Lin et al 2007 and Nishida et al. 2004. The swelling of each of the four paws was ranked with the arthritic score as follows: 0-no symptoms; 1-mild, but definite redness and swelling of one type of joint such as the ankle or wrist, or apparent redness and swelling limited to individual digits, regardless of the number of affected digits; 2-moderate redness and swelling of two or more types of joints; 3-severe redness and swelling of the entire paw including digits; 4-maximally inflamed limb with involvement of multiple joints (maximum cumulative clinical arthritis score 16 per animal) (Nishida et al., 2004).
# Clinically, body weight loss is associated with arthritis (Shelton et al., 2005; Argiles et al., 1998; Rall, 2004; Walsmith et al., 2004). […] The change in body weight (%) after onset of arthritis was calculated as follows: […]
# X-ray photos were taken of the hind paws of each individual animal. A random blind identity number was assigned to each of the photos, and the severity of bone erosion was ranked by two independent scorers with the radiological Larsen's score system as follows: 0-normal with intact bony outlines and normal joint space; 1—slight abnormality with any one or two of the exterior metatarsal bones showing slight bone erosion; 2—definite early abnormality with any three to five of the exterior metatarsal bones showing bone erosion; 3—medium destructive abnormality with all the exterior metatarsal bones as well as any one or two of the interior metatarsal bones showing definite bone erosions; 4—severe destructive abnormality with all the metatarsal bones showing definite bone erosion and at least one of the inner metatarsal joints completely eroded leaving some bony joint outlines partly preserved; 5—mutilating abnormality without bony outlines. This scoring system is a modification from Salvcmini et al., 2001; Bush et al., 2002; Sims et al., 2004; Jou et al., 2005. […]
# [4] = biological target: Recombinant human JAK1 catalytic domain (Homo sapiens (Human), UniProt P23458); experiment: JAK1 inhibition assay; type: biochemical
# In short: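 Radiometric assay read by scintillation counting after phosphoric-acid washes. Percent inhibition calculated from cpm relative to vehicle and 10 μM staurosporine control. IC50 derived from compound dose-dilution series.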
# Chain of Recombinant human JAK1 catalytic domain (P23458 850-1154): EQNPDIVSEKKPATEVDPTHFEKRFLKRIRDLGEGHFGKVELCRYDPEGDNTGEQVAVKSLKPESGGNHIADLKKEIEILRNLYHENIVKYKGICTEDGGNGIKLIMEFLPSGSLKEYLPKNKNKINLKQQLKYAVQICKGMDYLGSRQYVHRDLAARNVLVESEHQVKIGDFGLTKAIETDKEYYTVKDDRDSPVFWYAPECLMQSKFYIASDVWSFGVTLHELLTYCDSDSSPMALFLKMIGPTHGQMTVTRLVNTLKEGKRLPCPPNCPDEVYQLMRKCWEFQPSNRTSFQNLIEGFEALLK
# Chain of Recombinant human TYK2 catalytic domain (P29597 871-1187): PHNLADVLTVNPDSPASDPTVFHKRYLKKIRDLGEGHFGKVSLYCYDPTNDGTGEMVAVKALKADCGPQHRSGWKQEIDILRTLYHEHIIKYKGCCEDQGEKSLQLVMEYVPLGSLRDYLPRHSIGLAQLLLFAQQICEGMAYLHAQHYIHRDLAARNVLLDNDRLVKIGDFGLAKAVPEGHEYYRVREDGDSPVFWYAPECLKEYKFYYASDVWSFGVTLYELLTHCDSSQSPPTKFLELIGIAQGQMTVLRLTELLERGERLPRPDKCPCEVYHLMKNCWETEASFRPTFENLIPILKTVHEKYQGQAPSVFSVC
Compound,EC50 [1] [nM],IC50 [2] [nM],efficacy in all readouts of the rat CIA study [3],IC50 ([4]; semi-quantitative score) [nM],IC50 [4] [nM]
"O=C(Nc1nc2cccc(-c3ccc(CN4CCOCC4)cc3)n2n1)C1CC1 [Compound 18, N-(5-(4-(morpholinomethyl)phenyl)-[1,2,4]triazolo[1,5-a]pyridin-2-yl)cyclopropanecarboxamide]",> 1000,> 1000,efficacious in all readouts,–,–
"CC1CCCN(C(=O)c2ccc(-c3cccc4nc(NC(=O)C5CC5)nn34)cc2)C1 (stereo not shown) [Compound 145, N-(5-(4-(3-methylpiperidine-1-carbonyl)phenyl)-[1,2,4]triazolo[1,5-a]pyridin-2-yl)cyclopropanecarboxamide]",501 to 1000,–,efficacious in all readouts,< 100,–
"N#Cc1ccc(COc2ccc(-c3cccc4nc(NC(=O)C5CC5)nn34)cc2)cn1 [Compound 176, N-(5-(4-((6-cyanopyridin-3-yl)methoxy)phenyl)-[1,2,4]triazolo[1,5-a]pyridin-2-yl)cyclopropanecarboxamide]",101 to 500,< 100,efficacious in all readouts,–,< 100
"CC1CN(C(=O)c2ccc(-c3cccc4nc(NC(=O)C5CC5)nn34)cc2)CC(C)O1 (stereo not shown) [Compound 215, Cyclopropanecarboxylic acid {5-[4-(2,6-dimethyl-morpholine-4-carbonyl)-phenyl]-[1,2,4]triazolo[1,5-a]pyridin-2-yl}-amide]",101 to 500,–,efficacious in all readouts,< 100,–
"CC1(C)CN(C(=O)c2ccc(-c3cccc4nc(NC(=O)C5CC5)nn34)cc2)C1 [Compound 330, Cyclopropanecarboxylic acid (5-[4-(3,3-dimethyl-azetidine-1-carbonyl)-phenyl]-[1,2,4]triazolo[1,5-a]pyridin-2-yl}-amide]",1 to 100,–,efficacious in all readouts,< 100,–
